Experimental data published in paper PMC5278707, “Structure-Activity Relationships of a Series of Echinocandins and the Discovery of CD101, a Highly Stable and Soluble Echinocandin with Distinctive Pharmacokinetic Properties” (Antimicrobial Agents and Chemotherapy, 2017).
Converted amounts (≈) assume the structure as drawn. Read-outs that look alike come from different tables or passages of the source.

What was measured:
[1] = system: Candida guilliermondii ATCC 34134; experiment: CLSI broth microdilution (M27-A3) MIC; format: cell-based; details: Meyerozyma guilliermondii, ATCC34134, 50% reduction in growth
Protocol: (§1) All yeast and mold isolates were obtained from the American Type Culture Collection (ATCC). Isolates were plated on an agar medium to verify purity, and single colonies were picked. Aspergillus isolates were resubcultured on potato dextrose slants and incubated for 7 days at 35°C. Candida isolates were streaked on SDA plates and incubated for 24 h at 35°C. RPMI 1640 medium (HyClone Laboratories, Logan, UT) and the inoculum for each organism were prepared according to Clinical and Laboratory Standards Institute (CLSI) guidelines ([27][–][29]). Stock solutions for all test articles were prepared in 100% dimethyl sulfoxide (DMSO). Susceptibility testing was performed using CLSI broth microdilution methods for Candida (M27-A3) and Aspergillus (M38-A2). Amphotericin B was tested at a range of 0.06 to 64 μg/ml; all other antifungal agents were tested at 0.015 to 16 μg/ml. Plates were incubated at 35°C and were read from the bottom using a plate viewer after 24 and 48 h for Candida and after 48 h for Aspergillus. MIC values are reported as the lowest drug concentration to yield a 50% reduction in the growth of Candida species tested compared to the control well. Minimum effective concentration (MEC) values are reported as the lowest drug concentration to yield the stunted hyphal growth of Aspergillus species tested compared to that of the control well.

[2] = system: Candida parapsilosis ATCC 22019; experiment: CLSI broth microdilution (M27-A3) MIC; format: cell-based; details: Lodderomyces parapsilosis, ATCC22019, 50% reduction in growth
Protocol: as §1

[3] = system: Candida krusei ATCC 14243; experiment: CLSI broth microdilution (M27-A3) MIC; format: cell-based; details: Pichia kudriavzevii, ATCC14243, 50% reduction in growth
Protocol: as §1

[4] = system: Candida lusitaniae ATCC 34134; experiment: CLSI broth microdilution (M27-A3) MIC; format: cell-based; details: Clavispora lusitaniae, ATCC34134, 50% reduction in growth, read-out: MIC
Protocol: as §1

[5] = system: Candida albicans ATCC 90028; experiment: CLSI broth microdilution (M27-A3) MIC; format: cell-based; details: 50% reduction in growth
Protocol: as §1

[6] = system: Candida tropicalis ATCC 90874; experiment: CLSI broth microdilution (M27-A3) MIC; format: cell-based; details: 50% reduction in growth
Protocol: as §1

[7] = system: Candida glabrata ATCC 90030; experiment: CLSI broth microdilution (M27-A3) MIC; format: cell-based; details: Nakaseomyces glabratus
Protocol: as §1

[8] = system: Aspergillus clavatus ATCC 10058; experiment: CLSI broth microdilution (M38-A2) MEC/MIC; format: cell-based; details: read at 68 h
Protocol: as §1, with “Plates were incubated at 35°C and were read from the bottom using a plate viewer after 24 and 48 h for Candida and after 48 h for Aspergillus.” left out

[9] = system: Aspergillus flavus ATCC 22546; experiment: CLSI broth microdilution (M38-A2) MEC/MIC; format: cell-based
Protocol: as §1

[10] = system: Aspergillus ochraceus ATCC 96919; experiment: CLSI broth microdilution (M38-A2) MEC/MIC; format: cell-based
Protocol: as §1

[11] = system: Aspergillus fumigatus ATCC 204305; experiment: CLSI broth microdilution (M38-A2) MEC/MIC; format: cell-based
Protocol: as §1

[12] = system: Aspergillus niger ATCC 16888; experiment: CLSI broth microdilution (M38-A2) MEC/MIC; format: cell-based
Protocol: as §1

[13] = system: Aspergillus candidus ATCC 13686; experiment: CLSI broth microdilution (M38-A2) MEC/MIC; format: cell-based
Protocol: as §1

[14] = system: Aspergillus fumigatus ATCC MYA-3626; experiment: CLSI broth microdilution (M38-A2) MEC/MIC; format: cell-based; details: 48 h
Protocol: as §1

[15] = system: Aspergillus spp.; experiment: CLSI broth microdilution (M38-A2) MEC, whole panel; format: cell-based; details: 48 h, summary of Table 3
Protocol: as §1

[16] = single-dose pharmacokinetics in beagle dogs; details: male, beagle, dog, in vivo, iv, 1.4 mg/kg
Protocol: Four male, nonnaive beagle dogs received a single i.v. infusion (1.4 mg/kg) of test article over 10 min via a catheter placed in the cephalic vein. Blood draws (1.0 ml) were taken at 0.083, 0.33, 0.75, 1.5, 4.5, 12, 24, and 48 h. An additional blood draw at 72 h was obtained for CD101. Blood draws were taken from the jugular vein and were collected into K3 EDTA tubes. Following blood collection, the samples were immediately inverted several times and were held on wet ice pending centrifugation. The samples were centrifuged within ∼30 min of collection under refrigeration (∼5°C for ∼10 min at ∼2,000 g) to obtain plasma. The plasma samples were frozen immediately on dry ice after separation and were stored at approximately −70°C until analysis. Levels of test article in the plasma samples were measured by quantitative liquid chromatography-tandem mass spectrometry (LC-MS/MS) analysis compared to a calibration curve and an internal standard. Pharmacokinetic parameters were calculated from the plasma concentration-time data using standard noncompartmental methods and utilizing WinNonlin analysis software.

[17] = system: Candida albicans R303; experiment: mouse model of disseminated candidiasis, fungal burden in kidneys; format: in vivo; details: kidneys at 24 h; for fungal burden relative to limit of detection: neutropenic CD-1 mice, 0.5, 1.5 or 4.5 mg/kg; for reductions in fungal burden vs infected control (statistical significance): neutropenic CD-1 mice, 0.5, 1.5 or 4.5 mg/kg 2 h after inoculation
Protocol: Candida albicans R303 was grown on Sabouraud dextrose agar (SDA) plates for 24 h at 35°C. Colonies were transferred to phosphate-buffered saline (PBS) and diluted to 3.8 × 10^5 CFU/ml. Female CD-1 mice (Charles River Laboratories, Portage, MI) were rendered neutropenic via injection with cyclophosphamide (150 mg/kg) 5 days and 2 days prior to inoculation. Each animal was infected by injecting 0.1 ml of inoculum into the tail vein. In the treatment groups, animals received 0.5, 1.5, or 4.5 mg/kg of test article 2 h after inoculation. Two groups of untreated, infected controls were used to evaluate fungal burden: at 2 h when test articles were administered in the treatment groups and at 24 h when the treatment groups were sacrificed. Kidneys were harvested at 2 h in one untreated control group and at 24 h in all other groups. The kidneys were homogenized in 2 ml of sterile phosphate-buffered saline, and 0.1-ml aliquots were spread on SDA plates and incubated at 35°C overnight. Fungal burden was determined based on the log10 C. albicans CFU counts from paired kidneys. Data were analyzed using a one-way analysis of variance (ANOVA) and the Dunnett multiple comparisons test comparing the test articles to the infected control group (GraphPad InStat version 3.1; GraphPad Software, San Diego, CA).

SMILES: C[C@@H]1[C@H](O)[C@@H](C)/C=C/C=C/C=C/C=C/C=C/C=C/C=C/[C@H](O[C@@H]2O[C@H](C)[C@@H](O)[C@H](N)[C@@H]2O)C[C@@H]2O[C@](O)(C[C@@H](O)C[C@@H](O)[C@H](O)CC[C@@H](O)C[C@@H](O)CC(=O)O[C@H]1C)C[C@H](O)[C@H]2C(=O)O [Amphotericin B, amphotericin B]
- MIC ([1]; 24 h): ≤ 0.06 µg/mL
- MIC ([1]; 48 h): ≤ 0.06 µg/mL
- MIC ([2]; 24 h): 0.25 µg/mL (≈ 0.271 µM)
- MIC ([2]; 48 h): 0.5 µg/mL (≈ 0.541 µM)
- MIC ([3]; 24 h): 0.25 µg/mL (≈ 0.271 µM)
- MIC ([3]; 48 h): 0.5 µg/mL (≈ 0.541 µM)
- MIC ([4]; 24 h): ≤ 0.06 µg/mL
- MIC ([4]; 48 h): ≤ 0.06 µg/mL
- MIC ([5]; ATCC90028, 24 h): ≤ 0.06 µg/mL
- MIC ([5]; ATCC90028, 48 h): 0.125 µg/mL (≈ 0.135 µM)
- MIC ([6]; ATCC90874, 24 h): 0.25 µg/mL (≈ 0.271 µM)
- MIC ([6]; ATCC90874, 48 h): 0.25 µg/mL (≈ 0.271 µM)
- MIC ([7]; ATCC90030, 24 h, 50% reduction in growth, read-out: MIC): 0.06 µg/mL (≈ 0.0649 µM)
- MIC ([7]; ATCC90030, 48 h, 50% reduction in growth, read-out: MIC): 0.25 µg/mL (≈ 0.271 µM)
- MIC ([8]; Aspergillus clavatus, ATCC10058): ≤ 0.06 µg/mL
- MIC ([9]; Aspergillus flavus, ATCC22546, 48 h): 1 µg/mL (≈ 1.08 µM)
- MIC ([10]; Aspergillus ochraceus, ATCC96919, 48 h): 2 µg/mL (≈ 2.16 µM)
- MIC ([11]; Aspergillus fumigatus, ATCC204305, 48 h): 1 µg/mL (≈ 1.08 µM)
- MIC ([12]; Aspergillus niger, ATCC16888, 48 h): 0.125 µg/mL (≈ 0.135 µM)
- MIC ([13]; Aspergillus candidus, ATCC13686, 48 h): ≤ 0.06 µg/mL
- MIC ([14]; Aspergillus fumigatus): 1 µg/mL (≈ 1.08 µM)

SMILES: CC[C@H](C)C[C@H](C)CCCCCCCCC(=O)N[C@H]1C[C@@H](O)[C@@H](NCCN)NC(=O)[C@@H]2[C@@H](O)CCN2C(=O)[C@H]([C@H](O)CCN)NC(=O)[C@H]([C@H](O)[C@@H](O)c2ccc(O)cc2)NC(=O)[C@@H]2C[C@@H](O)CN2C(=O)[C@H]([C@@H](C)O)NC1=O [Caspofungin, caspofungin]
- MIC ([1]; 24 h): 0.25 µg/mL (≈ 0.229 µM)
- MIC ([1]; 48 h): > 16 µg/mL
- MIC ([2]; 24 h): 0.25 µg/mL (≈ 0.229 µM)
- MIC ([2]; 48 h): 0.5 µg/mL (≈ 0.457 µM)
- MIC ([3]; 24 h): 0.25 µg/mL (≈ 0.229 µM)
- MIC ([3]; 48 h): 0.5 µg/mL (≈ 0.457 µM)
- MIC ([4]; 24 h): 0.25 µg/mL (≈ 0.229 µM)
- MIC ([4]; 48 h): 0.25 µg/mL (≈ 0.229 µM)
- MIC ([5]; ATCC90028, 24 h): 0.06 µg/mL (≈ 0.0549 µM)
- MIC ([5]; ATCC90028, 48 h): 0.06 µg/mL (≈ 0.0549 µM)
- MIC ([6]; ATCC90874, 24 h): 0.06 µg/mL (≈ 0.0549 µM)
- MIC ([6]; ATCC90874, 48 h): 0.06 µg/mL (≈ 0.0549 µM)
- MIC ([7]; ATCC90030, 24 h): 0.125 µg/mL (≈ 0.114 µM)
- MIC ([7]; ATCC90030, 48 h): 0.125 µg/mL (≈ 0.114 µM)
- MEC values against all Aspergillus species tested [15]: ≤ 0.125 µg/mL
- MEC ([8]; stunted hyphal growth): 0.125 µg/mL
- MEC ([9]; 48 h, stunted hyphal growth): 0.06 µg/mL
- MEC ([10]; 48 h, stunted hyphal growth): 0.06 µg/mL
- MEC ([11]; 48 h, stunted hyphal growth): 0.125 µg/mL
- MEC ([12]; 48 h, stunted hyphal growth): 0.06 µg/mL
- MEC ([13]; 48 h, stunted hyphal growth): ≤0.015 µg/mL
- MEC ([14]; stunted hyphal growth): 0.125 µg/mL

SMILES: CCCCCOc1ccc(-c2ccc(-c3ccc(C(=O)N[C@H]4C[C@@H](O)[C@@H](OCCOCCOC)NC(=O)[C@@H]5[C@@H](O)[C@@H](C)CN5C(=O)[C@H]([C@@H](C)O)NC(=O)[C@H]([C@H](O)[C@@H](O)c5ccc(O)cc5)NC(=O)[C@@H]5C[C@@H](O)CN5C(=O)[C@H]([C@@H](C)O)NC4=O)cc3)cc2)cc1 [Compound 2]
- Vd [16]: 0.331 L/kg
- half-life [16]: 18.9 h

SMILES: CCCCCOc1ccc(-c2ccc(-c3ccc(C(=O)N[C@H]4C[C@@H](O)[C@@H](OCCOCCN)NC(=O)[C@@H]5[C@@H](O)[C@@H](C)CN5C(=O)[C@H]([C@@H](C)O)NC(=O)[C@H]([C@H](O)[C@@H](O)c5ccc(O)cc5)NC(=O)[C@@H]5C[C@@H](O)CN5C(=O)[C@H]([C@@H](C)O)NC4=O)cc3)cc2)cc1 [Compound 3]
- Vd [16]: 0.627 L/kg
- half-life [16]: 33.7 h
- fungal burden relative to limit of detection [17]: below the limit of detection for at least one of the doses

SMILES: CCCCCOc1ccc(-c2ccc(-c3ccc(C(=O)N[C@H]4C[C@@H](O)[C@@H](OCCOCCO)NC(=O)[C@@H]5[C@@H](O)[C@@H](C)CN5C(=O)[C@H]([C@@H](C)O)NC(=O)[C@H]([C@H](O)[C@@H](O)c5ccc(O)cc5)NC(=O)[C@@H]5C[C@@H](O)CN5C(=O)[C@H]([C@@H](C)O)NC4=O)cc3)cc2)cc1 [Compound 4]
- Vd [16]: 0.361 L/kg
- half-life [16]: 28.9 h
- reductions in fungal burden vs infected control (statistical significance) [17]: statistically significant (P < 0.01) reductions in fungal burden at all doses
- fungal burden relative to limit of detection [17]: below the limit of detection for at least one of the doses

SMILES: CCCCCOc1ccc(-c2ccc(-c3ccc(C(=O)N[C@H]4C[C@@H](O)[C@@H](NCCNCCO)NC(=O)[C@@H]5[C@@H](O)[C@@H](C)CN5C(=O)[C@H]([C@@H](C)O)NC(=O)[C@H]([C@H](O)[C@@H](O)c5ccc(O)cc5)NC(=O)[C@@H]5C[C@@H](O)CN5C(=O)[C@H]([C@@H](C)O)NC4=O)cc3)cc2)cc1 [Compound 5]
- Vd [16]: 0.687 L/kg
- half-life [16]: 21 h
- reductions in fungal burden vs infected control (statistical significance) [17]: statistically significant (P < 0.01) reductions in fungal burden at all doses
- fungal burden relative to limit of detection [17]: below the limit of detection for at least one of the doses
